Source: paper PMC6379368, “Extracellular and intracellular small-molecule galectin-3 inhibitors” (Scientific Reports, 2019)

Key:
JIMT-1 cells [1] = assay: MTT cell viability assay, JIMT-1; assay type: cell-based; conditions: JIMT-1, 72 hours, 0.04–40 µM for 1 and 2, 0.04–20 µM for 3
Method: The MTT (3-[4,5-dimethylthiazol-2-yl]−2,5-diphenyltetrazolium bromide) assays were performed as previously described. […] The cells were incubated for 24 hours before addition of galectin-3 inhibitors. The inhibitors were diluted in PBS from their respective stock solution in DMSO (see Galectin-3 inhibitors) and used at final concentrations ranging from 0.04 to 40 μM. DMSO was adjusted to make the final DMSO concentration 0.2% for all inhibitor concentrations, including the control sample (no inhibitor). After 72 hours of treatment, 20 μl of 5 mg/ml MTT solution (in PBS) was added to each well and incubation continued for 1 hour at 37 °C. Thereafter, the MTT containing medium was removed and 100 μl of DMSO was added per well and the plates swirled gently for 10 minutes to dissolve the cells and the purple formazan product precipitate. Absorbance was monitored at 540 nm using a Labsystems iEMS Reader MF (Labsystems Oy, Helsinki, Finland) and the software DeltaSoft II v.4.14 (Biometallics Inc., Princeton, NJ, USA).

AsPC-1 cells = assay: MTT assay, AsPC-1 pancreatic cancer cells; assay type: cell-based; conditions: AsPC-1, 72 hours
Method: The MTT (3-[4,5-dimethylthiazol-2-yl]−2,5-diphenyltetrazolium bromide) assays were performed as previously described. In brief, cells were seeded in 96-well plates (6000 cells/well for MCF-7 and HCC1937 and 5000 cells for JIMT-1 in 180 μl fully-supplemented medium as described under Cell culture). The cells were incubated for 24 hours before addition of galectin-3 inhibitors. The inhibitors were diluted in PBS from their respective stock solution in DMSO (see Galectin-3 inhibitors) and used at final concentrations ranging from 0.04 to 40 μM. DMSO was adjusted to make the final DMSO concentration 0.2% for all inhibitor concentrations, including the control sample (no inhibitor). After 72 hours of treatment, 20 μl of 5 mg/ml MTT solution (in PBS) was added to each well and incubation continued for 1 hour at 37 °C. […] Absorbance was monitored at 540 nm using a Labsystems iEMS Reader MF (Labsystems Oy, Helsinki, Finland) and the software DeltaSoft II v.4.14 (Biometallics Inc., Princeton, NJ, USA). […]
Fluorescence anisotropy assay
The affinity between inhibitor 1 and the carbohydrate recognition domain (CRD) of galectin-8C and between inhibitor 3 and the CRD of galectin-2, -4N, -4C, 8C, and -9C was determined using the fluorescence anisotropy assay described in the main article. […]

[2] = system: animal models of idiopathic pulmonary fibrosis (IPF); design: method as in PMID 27356186, PMID 28055102; conditions: cited from earlier work
galectin-1 = system: galectin-1; design: method as in Delaine et al., Salameh et al., Peterson et al.; conditions: lower compared to galectin-3; ref Delaine et al., Salameh et al., Peterson et al.; cited from earlier work
JIMT-1 cells [3] = assay: Cell proliferation assay (growth curves), JIMT-1; assay type: cell-based; conditions: JIMT-1, 5 µM, up to 6 days
Method: JIMT-1 cells were seeded in 5 cm diameter Petri dishes at a density of 400 000 cells/Petri dish. […] The cells were harvested by trypsinization and the number of cells was determined by counting in a hemocytometer (each day for a total of 6 days).

In the case of `OC[C@H]1O[C@@H](S[C@@H]2O[C@H](CO)[C@H](O)[C@H](n3cc(-c4cccc(F)c4)nn3)[C@H]2O)[C@H](O)[C@@H](n2cc(-c3cccc(F)c3)nn2)[C@H]1O` [compound 1], the “cell viability (MTT)” value (JIMT-1 cells [1]) is given as “no apparent change in cell viability”, the “toxicity (MTT)” value (AsPC-1 cells) is given as “low toxicity” and the “effect in animal models of idiopathic pulmonary fibrosis (IPF)” value [2] is given as “therapeutic effects”. For the same molecule, the “affinity for galectin-1” value (galectin-1) was “high affinity” and the “cell proliferation (growth curves)” value (JIMT-1 cells [3]) was “no effect on cell proliferation”.
